This is an account of results in US8809057B2, “Methods of evaluating gene expression levels” (Raytheon BBN Technologies Corp., priority 2012, dated 2014).

What all share (format): cell-based
For test [1], the system named is Tre genetic element (rtTA). The test is described as follows: Example 1 multiplex circuit: small molecule effector (dox) transfer curve, input reporter EBFP2 by FACS. Conditions: Example 1, FIG. 7, normalized input reporter EBFP2, HEK 293 FT. An excerpt: Both the regulatory protein transcription unit and the input reporter protein transcription unit are under the control of the small molecule effector doxycycline (dox). In this example, the activity of the small molecule effector (dox) is mediated through an effector transcription unit. The effector transcription unit comprises a constitutive effector genetic element (pHef1a) and a coding sequence for an effector-regulated protein (rtTA), wherein the constitutive effector genetic element (pHef1a) controls expression of the effector-controlled protein (rtTA). […]
The input transcription unit comprises a genetic element responsive to a small molecule effector (Tre) and a coding sequence for the input reporter protein (EBFP2), wherein the genetic element responsive to the effector-regulated protein (Tre) controls expression of the input reporter protein (EBPF2). […] The input reporter protein EBFP2 has a blue fluorescence emission. […]
(§1) The cells are then subjected to FACS analysis and the amounts of input, output and constitutive protein fluorescence is measured for each cell. […]
(§2) While the colors for the input, output and constitutive protein fluorescence are selected to have as little overlap as possible, there is some inherent overlap between the different colors. […]
(In flow cytometry, cells or beads pass a laser one at a time.)

Test [2] has as its system Tre genetic element (rtTA). In words: Example 2 multiplex circuit: small molecule effector (dox) transfer curve, input reporter EYFP. Conditions: Example 2, FIG. 10, normalized input reporter EYFP. An excerpt:
The multiplex circuit to be characterized is shown in FIG. 9. he regulatory protein transcription unit and the input reporter protein transcription unit, which are co-expressed in this example, are under the control of the small molecule effector doxycycline (dox), which binds to the constitutively expressed protein rtTA to regulate transcription from the Tre genetic element. In this example, the effector transcription unit comprises a constitutive effector genetic element (CAG) and a coding sequence for an effector-regulated protein (rtTA), wherein the constitutive effector genetic element (CAG) controls expression of the effector-controlled protein (rtTA). In this example, the effector transcription unit further comprises coding sequence for the VP16-GAL4 activator which binds UAS-T1 in the output transcription unit. In the absence of dox, Tal1 is not expressed and the constitutively expressed VP16-GAL4 activator binds to UAS-T1, leading to expression of the mKate output reporter. The effector transcription unit contains a coding sequence for a 2A self-cleaving peptide allowing for expression of rtTA and VP16-GAL4 from the same construct. The test regulatory protein transcription unit and the input transcription unit are co-expressed from a genetic element responsive to a small molecule effector (Tre). […] The input reporter protein EYFP has a yellow fluorescence emission. […]

The test system of the next test is Hef1a-LacO1Oid. The test is described as follows: Example 1 multiplex circuit: regulatory protein (LacI) transfer curve, output reporter EYFP by FACS. Particulars: Example 1, FIG. 8, normalized output reporter EYFP.
Text: The regulatory protein transcription unit comprises a genetic element responsive to a small molecule effector (Tre) and a coding sequence for the regulatory protein (LacI), wherein the genetic element responsive to the genetic element responsive to the effector-regulated protein (Tre) controls expression of the regulatory protein (LacI). In the present case, the genetic element responsive to the effector-regulated protein (Tre) is responsive to the effector-controlled protein (rtTA).
The output transcription unit comprising a genetic element responsive to the regulatory protein (Hef1a-LacO1Oid) and a coding sequence for the output reporter protein (EYFP), wherein the genetic element responsive to the regulatory protein (Hef1a-LacO1Oid) controls expression of the output reporter protein (EYFP). The output reporter protein EYFP has a yellow fluorescence emission. […]
as §1, §2

Take `C[C@H]1c2cccc(O)c2C(=O)C2=C(O)[C@]3(O)C(=O)C(C(N)=O)=C(O)[C@@H](N(C)C)[C@@H]3[C@@H](O)[C@@H]21` [dox, doxycycline]: in test [1], the “dox level at which the level of IFP saturates at a high value” was “more than 200 nM” and the “dox level at which the level of IFP stays low regardless of the plasmid count” value is given as “less than or equal to 3 nM”. In addition, in test [2], the “dox level at which the level of IFP saturates at a high value” was “more than 200 nM” and the “dox level at which the level of IFP stays low regardless of the plasmid count” value is listed as “less than or equal to 3 nM”.

B1: LacI: test regulatory protein (Lac repressor) binding Hef1a-LacO1Oid (protein, UniProt P03023 1-360, looked up)
Lactose operon repressor: MKPVTLYDVAEYAGVSYQTVSRVVNQASHVSAKTREKVEAAMAELNYIPNRVAQQLAGKQSLLIGVATSSLALHAPSQIVAAIKSRADQLGASVVVSMVERSGVEACKAAVHNLLAQRVSGLIINYPLDDQDAIAVEAACTNVPALFLDVSDQTPINSIIFSHEDGTRLGVEHLVALGHQQIALLAGPLSSVSARLRLAGWHKYLTRNQIQPIAEREGDWSAMSGFQQTMQMLNEGIVPTAMLVANDQMALGAMRAITESGLRVGADISVVGYDDTEDSSCYIPPLTTIKQDFRLLGQTSVDRLLQLSQGQAVKGNQLLPVSLVKRKTTLAPNTQTASPRALADSLMQLARQVSRLESGQ
As for B1, the “repression of the output of Hef1a-LacO1Oid” value in the test on Hef1a-LacO1Oid is given as 100 fold.
